# Assay results: ChEMBL document CHEMBL1777680, “Part 1: N-alkylated glycines as potent α2δ ligands” (Bioorg Med Chem Lett, 2011)
# What was measured:
# [1] = Displacement of [3H]Gabapentin from alpha2delta calcium channel in pig brain tissue homogenates after 45 mins by scintillation counting; format: tissue-based, Sus scrofa
# [2] = Half life in iv dosed rat; format: ADME, organism-based; conditions: in vivo
# [3] = Tmax in iv dosed rat; format: ADME, organism-based; conditions: in vivo
# Rattus norvegicus = experiment: Unbound clearance in iv dosed rat; format: ADME, organism-based; conditions: in vivo
# [4] = Volume of distribution in iv dosed rat; format: ADME, organism-based; conditions: in vivo
IC50 [1],further results,SMILES
900 nM,–,NCc1ccc(SCCNCC(=O)O)cc1
83 nM,–,O=C(O)CNCCSc1ccc2ccncc2c1
22 nM,half-life [2]: 66 min; Tmax [3]: 15 min; CL free (Rattus norvegicus): 23 mL/min/kg; Vd [4]: 0.6 L/kg,O=C(O)CNCCSc1ccc2ccccc2c1
214 nM,–,CCC(CNCC(=O)O)Oc1ccc(Br)cc1 (racemic)
40 nM,–,CCC(CNCC(=O)O)Oc1cccc(Cl)c1 (racemic)
6670 nM,–,C[C@H](CNCC(=O)O)Oc1ccc(Br)cc1
6590 nM,–,O=C(O)CNCCOc1ccc(Cl)cc1
2500 nM,–,O=C(O)CNCCSc1ccc(F)cc1
195 nM,–,O=C(O)CNCCSc1ccc(Cl)cc1
680 nM,–,N#Cc1ccc(SCCNCC(=O)O)cc1
428 nM,–,O=C(O)CNCCSc1cccc(Br)c1
441 nM,–,C[C@@H](CNCC(=O)O)Oc1ccc(Br)cc1
523 nM,–,CC(CNCC(=O)O)Oc1ccc(Cl)cc1 (racemic)
5400 nM,–,O=C(O)CNCCSc1ccccc1
59 nM,–,O=C(O)CNCCSc1ccc(Br)cc1
